Test results reported in the supplement of paper PMC13380429.
± gives the standard deviation of the averaged measurements.

Experiments:
Settings in all cases: 72 h
U2OS [1] = assay: relative viability EC50 (midpoint between 100% and the lowest measured viability); higher = less toxic
Calu-3 [2] = assay: as above
HepG2 [3] = assay: as above
Caco-2 [4] = assay: as above
Vero E6 [5] = assay: as above
U2OS [6] = assay: cell viability relative to DMSO; higher = less toxic
Calu-3 [7] = assay: as above
HepG2 [8] = assay: as above
Caco-2 [9] = assay: as above
Vero E6 [10] = assay: as above
U2OS [11] = assay: drug sensitivity score (DSS) for viability; higher = more toxic; extreme values may be limits of the assay
Calu-3 [12] = assay: as above
HepG2 [13] = assay: as above
Caco-2 [14] = assay: as above
Vero E6 [15] = assay: as above

Compound | relative viability EC50 (U2OS [1]) [µM] | relative viability EC50 (Calu-3 [2]) [µM] | relative viability EC50 (HepG2 [3]) [µM] | relative viability EC50 (Caco-2 [4]) [µM] | relative viability EC50 (Vero E6 [5]) [µM] | cell viability (U2OS [6]; 1 nM) [%] | cell viability (U2OS [6]; 10 nM) [%] | cell viability (U2OS [6]; 100 nM) [%] | cell viability (U2OS [6]; 1000 nM) [%] | cell viability (U2OS [6]; 10000 nM) [%] | cell viability (Calu-3 [7]; 1 nM) [%] | cell viability (Calu-3 [7]; 10 nM) [%] | cell viability (Calu-3 [7]; 100 nM) [%] | cell viability (Calu-3 [7]; 1000 nM) [%] | cell viability (Calu-3 [7]; 10000 nM) [%] | cell viability (HepG2 [8]; 1 nM) [%] | cell viability (HepG2 [8]; 10 nM) [%] | cell viability (HepG2 [8]; 100 nM) [%] | cell viability (HepG2 [8]; 1000 nM) [%] | cell viability (HepG2 [8]; 10000 nM) [%] | cell viability (Caco-2 [9]; 1 nM) [%] | cell viability (Caco-2 [9]; 10 nM) [%] | cell viability (Caco-2 [9]; 100 nM) [%] | cell viability (Caco-2 [9]; 1000 nM) [%] | cell viability (Caco-2 [9]; 10000 nM) [%] | cell viability (Vero E6 [10]; 1 nM) [%] | cell viability (Vero E6 [10]; 10 nM) [%] | cell viability (Vero E6 [10]; 100 nM) [%] | cell viability (Vero E6 [10]; 1000 nM) [%] | cell viability (Vero E6 [10]; 10000 nM) [%] | drug sensitivity score (U2OS [11]) | drug sensitivity score (Calu-3 [12]) | drug sensitivity score (HepG2 [13]) | drug sensitivity score (Caco-2 [14]) | drug sensitivity score (Vero E6 [15])
CCOC(=O)c1ccccc1OC(=O)CCCCCCCC(=O)Oc1ccccc1C(=O)OCC [TU-2100] | > 10 | > 10 | > 10 | > 10 | > 10 | 102 | 100 | 97.3 | 99.6 | 99.3 | 94.1 | 104 | 92.3 | 95.7 | 108 | 97.9 | 104 | 106 | 96.7 | 98.9 | 97.9 | 101 | 92.1 | 95.6 | 100 | 95.5 | 101 | 102 | 101 | 99.9 | 0 | 0 | 0 | 0 | 0
NC(=O)c1cccc(-c2cccc(OC(=O)NC3CCCCC3)c2)c1 [URB597] | > 10 | > 10 | > 10 | > 10 | > 10 | 94 | 102 | 98.5 | 105 | 98.8 | 86.4 | 94.6 | 92.7 | 88.4 | 99.1 | 104 | 105 | 104 | 96.9 | 92.3 | 93.9 | 98.7 | 93.9 | 103 | 89.1 | 107 | 98.5 | 104 | 96.7 | 103 | 0 | 0 | 0 | 0 | 0
CCC[C@H](NC(=O)/C(C#N)=C/c1cccc(Br)n1)c1ccccc1 [WP1130] | 2.74 | 3.94 | 3.18 | 2.43 | 2.98 | 95.7 | 108 | 97.5 | 94.6 | 0.9 | 100 | 97.1 | 90.7 | 118 | 10.8 | 99.8 | 105 | 101 | 100 | 0.8 | 106 | 103 | 93.2 | 93 | 21.3 | 101 | 100 | 100 | 97.6 | 3.5 | 6.3 | 4 | 5.5 | 5.5 | 5.7
CCc1c(C(=O)Nc2cc(S(=O)(=O)N(CC)CC)ccc2O)[nH]c(C)c1C(C)=O [XD-14] | > 10 | > 10 | > 10 | > 10 | > 10 | 99.3 | 93 | 95.6 | 100 | 87.4 | 111 | 89.2 | 104 | 103 | 108 | 96.8 | 106 | 116 | 97.6 | 84.6 | 101 | 93.5 | 97.2 | 98.8 | 80.8 | 96 | 102 | 89.5 | 91.5 | 95.9 | 0.1 | 0 | 0.5 | 0.7 | 0.2
CC[C@@H](C)Nc1cc(C(=O)N[C@H]2C[C@H]3CC[C@@H](C2)N3c2ccc(C(=O)C3CC3)cn2)c(C)cc1C(N)=O [XL888] | 0.0872 | 0.0636 | 0.0285 | 0.071 | 0.315 | 97.2 | 104 | 43.4 | 4.3 | 3.4 | 92.4 | 101 | 53.6 | 43.1 | 38.7 | 108 | 93.4 | 4.8 | 1.3 | 1 | 104 | 94.3 | 59.3 | 32.8 | 35.2 | 104 | 104 | 99.8 | 30.4 | 52.4 | 24.2 | 16.8 | 30.8 | 17.3 | 12.7
N=C(N)S/C=C\C(=O)O [ZAPA] | > 10 | > 10 | > 10 | > 10 | > 10 | 92.8 | 97.7 | 95.6 | 100 | 101 | 83 | 103 | 101 | 103 | 95.5 | 96 | 95.5 | 104 | 89.3 | 102 | 91.1 | 96 | 91.3 | 104 | 106 | 98.3 | 97.1 | 94.8 | 95 | 106 | 0 | 0 | 0 | 0 | 0
Cc1ccc(-c2ccc(C)cn2)nc1 [abametapir] | > 10 | > 10 | > 10 | > 10 | > 10 | 98.8 | 96.3 | 97.8 | 96.6 | 99 | 106 | 92.1 | 95.6 | 92.6 | 96.3 | 119 | 110 | 100 | 103 | 98.9 | 95.9 | 86.7 | 79.8 | 87 | 93.3 | 103 | 104 | 101 | 93.4 | 105 | 0 | 0 | 0 | 0 | 0
CC(=O)O[C@@H]1CC[C@@]2(C)[C@@H](CC[C@]3(C)[C@@H]2C(=O)C=C2[C@@H]4[C@@H](C)[C@H](C)CC[C@]4(C)CC[C@]23C)[C@@]1(C)C(=O)O [acetyl-11-keto-beta-boswellic-acid] | > 10 | > 10 | > 10 | > 10 | > 10 | 101 ± 2.5 | 98.5 ± 2.3 | 98.7 ± 3.1 | 102 ± 4.6 | 99.5 ± 1.1 | 93.5 ± 0.71 | 108 ± 3.8 | 102 ± 7.1 | 101 ± 22 | 96.5 ± 3.5 | 109 ± 7.6 | 94 ± 7.4 | 106.6 ± 0.85 | 103 ± 5.4 | 101 ± 8 | 94 ± 1.4 | 109 ± 2.7 | 87.8 ± 15 | 98.1 ± 18 | 96.5 ± 4.7 | 104 ± 7.3 | 94.4 ± 5 | 99.7 ± 8 | 102 ± 3.4 | 104 ± 3.3 | 0 | 0 | 0 | 0 | 0
CC1(c2ccccc2)OC(C(=O)O)=CC1=O (stereo not given) [acifran] | > 10 | > 10 | > 10 | > 10 | > 10 | 103 | 97.9 | 103 | 97.4 | 104 | 94.9 | 93.6 | 85.5 | 95.3 | 99.6 | 90.3 | 91.9 | 97.8 | 108 | 101 | 90.8 | 95.3 | 95.8 | 105 | 98.9 | 98.9 | 96.1 | 96.9 | 98.5 | 98 | 0 | 0 | 0 | 0 | 0
C[n+]1c2cc(N)ccc2cc2ccc(N)cc21 [acriflavinium] | 3.2 | 2.62 | 0.516 | 0.594 | 1.27 | 98.7 | 101 | 99.7 | 100 | 18.2 | 108 | 108 | 99.3 | 94.9 | 25.8 | 84.1 | 85.9 | 88.6 | 33.1 | 1.2 | 97.4 | 91.1 | 91 | 62.3 | 37.4 | 96.9 | 94.8 | 103 | 82 | 49.3 | 4.5 | 4.9 | 14.4 | 8.3 | 5.2
O=C(CCCCCCCC(=O)NCCO)NCCO [adelmidrol] | > 10 | > 10 | > 10 | > 10 | > 10 | 96.3 | 103 | 94.5 | 99.5 | 103 | 94.2 | 97.1 | 87.2 | 107 | 104 | 112 | 94.9 | 98.6 | 94.8 | 101 | 93.1 | 98.7 | 96.2 | 104 | 98.9 | 99.2 | 98.7 | 96.4 | 96 | 107 | 0 | 0 | 0 | 0 | 0
C=CCN1CCCC1CNC(=O)c1cc2nn[nH]c2cc1OC (stereo not given) [alizapride] | > 10 | > 10 | > 10 | > 10 | > 10 | 97.6 | 99.9 | 94.5 | 106 | 100 | 89.9 | 91.4 | 86.2 | 101 | 112 | 108 | 94.2 | 104 | 88.8 | 103 | 94.7 | 104 | 90.1 | 98 | 107 | 92.9 | 97.3 | 94.9 | 91.4 | 105 | 0 | 0 | 0 | 0 | 0
CCOC(=O)[C@H]1O[C@@H]1C(=O)N[C@@H](CC(C)C)C(=O)NCCC(C)C [aloxistatin] | > 10 | > 10 | > 10 | > 10 | > 10 | 99.6 | 102 | 94.7 | 102 | 97.6 | 91.7 | 99.3 | 107 | 101 | 99.5 | 118 | 102 | 96.1 | 90.7 | 88.8 | 97.6 | 98.8 | 90.5 | 102 | 98 | 106 | 109 | 108 | 102 | 99.2 | 0 | 0 | 0.2 | 0 | 0
Nc1ccn([C@H]2CO[C@@H](CO)S2)c(=O)n1 [apricitabine] | > 10 | > 10 | > 10 | > 10 | > 10 | 98.4 | 94.2 | 96.6 | 102 | 100 | 101 | 101 | 98.5 | 92.5 | 102 | 94.9 | 105 | 104 | 99.8 | 103 | 99.9 | 91.7 | 98.9 | 103 | 105 | 93.7 | 96.9 | 99.1 | 96.4 | 104 | 0 | 0 | 0 | 0 | 0
